Consider 15 compounds from paper PMC6748986, “Potent modulation of the CepR quorum sensing receptor and virulence in a Burkholderia cepacia complex member using non-native lactone ligands” (Scientific Reports, 2019).

The pIC50 is the IC50 on a negative log10 scale, so that one unit is a factor of ten.

Where a chain is given by its changes, count along the chain named. pIC50: −log10 of the molar value.

One assay has as its target T1, CepR (Burkholderia multivorans, UniProt Q93PF7).
T1 sequence (Q93PF7 1-239): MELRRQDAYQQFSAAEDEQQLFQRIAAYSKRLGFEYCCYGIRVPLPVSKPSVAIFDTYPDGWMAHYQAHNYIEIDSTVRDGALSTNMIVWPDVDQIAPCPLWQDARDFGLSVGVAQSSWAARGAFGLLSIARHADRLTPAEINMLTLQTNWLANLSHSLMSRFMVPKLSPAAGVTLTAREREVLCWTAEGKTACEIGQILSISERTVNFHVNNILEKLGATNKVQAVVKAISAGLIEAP
Description: CepR antagonism in B. multivorans cepI::lacZ reporter (Bm-reporter), competition against C8-AHL. The assay is classed as cell-based. To be noted: Bm-reporter. An excerpt:
We next sought to assess if the CepR modulators identified in the Ec-reporter maintained their activities in a member of the Bcc. For these studies, we generated a B. multivorans cepI::lacZ reporter organism (Bm-reporter) using standard allelic exchange methods (see Methods). Along with B. cenocepacia, B. multivorans is one of the most commonly isolated Bcc members[6],[44]. We note that small molecules must contend with a different cellular environment in the native organism relative to E. coli[48]; however, as both CepR and the cepI promoter are highly conserved among Bcc species (Fig. S3), we reasoned that the majority of compounds identified in the Ec-reporter (containing B. cenocepacia versions of the cepI promoter and the cepR gene) would maintain their relative activity profiles in CepR in B. multivorans. […] Similar to the Ec-reporter, CepR binding to the cepI promoter then induces β-galactosidase production, allowing for the quantitation of CepR activity. Using the Bm-reporter organism, we observed robust activity for CepR in response to C8-AHL (EC50 = 0.7 nM, Table 3).
The B. multivorans cepI::lacZ strain was used to obtain dose-response data for CepR in response to synthetic AHLs. Overnight cultures of B. multivorans cepI::lacZ were grown in LB medium at 37 °C with shaking (225 rpm). Aliquots (200 μL) of a 1:10 dilution of this overnight culture were plated into 96-well plates containing varying concentrations of compound, and then grown for 4 h at 37 °C with shaking (225 rpm). β-galactosidase production was measured as described above for E. coli, with the following changes: permeabilized cells were incubated at 25 °C with substrate CPRG for ~10 min until positive control wells developed a deep red color. For agonism assays, synthetic compound was screened alongside and compared to the native ligand, C8-AHL (100 μM). For antagonism assays, the concentration of native ligand utilized was 5 nM (approximately equal to twice its EC50 value).
`O=C(Cc1ccc([N+](=O)[O-])cc1)N[C@H]1CCOC1=O` [Compound C13]: the “CepR antagonism in words” value is “bring reporter activity down to nearly zero”.

In the case of `CSc1cccc(CC(=O)NC2CCOC2=O)c1` (stereo not shown) [Compound E7], the “CepR antagonism in words” value is “bring reporter activity down to nearly zero”.

The same assay, now with this note: Bm-reporter; against 5 nM C8-AHL.
In the case of `O=C(Cc1ccc([N+](=O)[O-])cc1)N[C@H]1CCOC1=O` [Compound C13], the “Maximal Inhibition (%)” value came out at 96%.

In the case of `O=C(Cc1cccc([N+](=O)[O-])c1)NC1CCOC1=O` (stereo not shown) [Compound C14], the “Maximal Inhibition (%)” value came to 54%.

Consider `N#Cc1cccc(CC(=O)N[C@H]2CCOC2=O)c1` [Compound E5], for which the “Maximal Inhibition (%)” value is reported as 43%.

Turning to `CSc1cccc(CC(=O)NC2CCOC2=O)c1` (stereo not shown) [Compound E7], the “Maximal Inhibition (%)” value is recorded as 97%.

On to `O=C(Cc1cccc2ccccc12)N[C@H]1CCOC1=O` [Compound E13], for which the “Maximal Inhibition (%)” value was 13%.

With `O=C(COc1cccc([N+](=O)[O-])c1)N[C@H]1CCOC1=O` [Compound E25], the “Maximal Inhibition (%)” value worked out at 83%.

In the case of `O=C(N[C@H]1CCOC1=O)C1CCCC1` [Compound S4], the “Maximal Inhibition (%)” value turned out to be 93%.

The same assay, now with this note: Bm-reporter; against 5 nM C8-AHL; read-out: IC50.
With `O=C(Cc1ccc([N+](=O)[O-])cc1)N[C@H]1CCOC1=O` [Compound C13], the pIC50 is 5.44.

In the case of `O=C(Cc1cccc([N+](=O)[O-])c1)NC1CCOC1=O` (stereo not shown) [Compound C14], the pIC50 was 6.21.

As for `CSc1cccc(CC(=O)NC2CCOC2=O)c1` (stereo not shown) [Compound E7], the pIC50 is 5.40.

With `O=C(N[C@H]1CCOC1=O)C1CCCC1` [Compound S4], the pIC50 was 5.43.

The same assay, now with this note: Table S5, Bm-reporter; read-out: IC50.
Take `N#Cc1ccc(CC(=O)N[C@H]2CCOC2=O)cc1` [Compound E4]: the pIC50 is not above 5.35.

Consider `O=C(COc1cccc([N+](=O)[O-])c1)N[C@H]1CCOC1=O` [Compound E25], for which the pIC50 was not above 5.48.

Staying with this assay, now noted: Table S5, Bm-reporter; screening conc. 100 μM.
Consider `O=C(Cc1cccc(Cl)c1)N[C@H]1CCOC1=O` [Compound C6], for which the “Inh% (100-Act%)” value came out at 98%.

`O=C(Cc1ccccc1Cl)N[C@H]1CCOC1=O` [Compound C7]: the “Inh% (100-Act%)” value is on record as 95%.

In the case of `O=C(Cc1ccccc1Br)N[C@H]1CCOC1=O` [Compound C9], the “Inh% (100-Act%)” value turned out to be 99%.

Take `O=C(Cc1ccccc1I)N[C@H]1CCOC1=O` [Compound C12]: the “Inh% (100-Act%)” value was found to be 104%.

Take `O=C(Cc1ccccc1[N+](=O)[O-])N[C@H]1CCOC1=O` [Compound C15]: the “Inh% (100-Act%)” value was determined as 95%.

Take `N#Cc1ccc(CC(=O)N[C@H]2CCOC2=O)cc1` [Compound E4]: the “Inh% (100-Act%)” value is recorded as 97%.

As to `O=C(Cc1ccc(Cl)c(Cl)c1)N[C@H]1CCOC1=O` [Compound E11], the “Inh% (100-Act%)” value is recorded as 94%.

Turning to `O=C(Cc1ccc(Br)cc1)N[C@H]1CCOC1=O` [Control 7, reference compound], the “Inh% (100-Act%)” value is listed as 85%.

The target of the next assay is T2, CepR (Burkholderia cenocepacia, UniProt B4EMD0).
T2 sequence (B4EMD0 1-239): T1 sequence (Q93PF7 1-239) with R5W, S51A, H69Q, S84N, Q95R, A97D
Kind of assay: CepR agonism in E. coli β-galactosidase reporter (Ec-reporter) JLD271 [pJN105-cepR + pSC11-cepI]. The assay is classed as cell-based, B. cenocepacia. To be noted: Table S2, Ec-reporter; screening conc. 100 μM. In outline: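 E. coli JLD271 (ΔsdiA) carrying arabinose-inducible CepR (27 mM L-arabinose) and cepI-lacZ fusion, grown 4 h with compound; β-galactosidase measured by CPRG cleavage at 37 °C (~30 min), normalized to OD600. Agonism compared with C8-AHL at 100 μM; screen at 100 μM or solubility limit, then dose-response; ≥3 trials.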
Turning to `O=C(Cc1cccc(Cl)c1)N[C@H]1CCOC1=O` [Compound C6], the Act% turned out to be 3.2%.

`O=C(Cc1ccccc1Cl)N[C@H]1CCOC1=O` [Compound C7]: the Act% is recorded as 0.3%.

As to `O=C(Cc1ccccc1Br)N[C@H]1CCOC1=O` [Compound C9], the Act% is reported as 0.3%.

As to `O=C(Cc1ccccc1I)N[C@H]1CCOC1=O` [Compound C12], the Act% is -0.4%.

In the case of `O=C(Cc1ccc([N+](=O)[O-])cc1)N[C@H]1CCOC1=O` [Compound C13], the Act% is on record as 1.1%.

For `O=C(Cc1cccc([N+](=O)[O-])c1)NC1CCOC1=O` (stereo not shown) [Compound C14], the Act% came out at 16%.

Regarding `O=C(Cc1ccccc1[N+](=O)[O-])N[C@H]1CCOC1=O` [Compound C15], the Act% is 1.4%.

`N#Cc1ccc(CC(=O)N[C@H]2CCOC2=O)cc1` [Compound E4]: the Act% is 0.2%.

As for `N#Cc1cccc(CC(=O)N[C@H]2CCOC2=O)c1` [Compound E5], the Act% is reported as 4.9%.

For the compound `CSc1cccc(CC(=O)NC2CCOC2=O)c1` (stereo not shown) [Compound E7], the Act% came out at 5.9%.

Consider `O=C(Cc1ccc(Cl)c(Cl)c1)N[C@H]1CCOC1=O` [Compound E11], for which the Act% is 1.9%.

In the case of `O=C(Cc1cccc2ccccc12)N[C@H]1CCOC1=O` [Compound E13], the Act% is listed as 2.5%.

With `O=C(COc1cccc([N+](=O)[O-])c1)N[C@H]1CCOC1=O` [Compound E25], the Act% stood at 25%.

`O=C(N[C@H]1CCOC1=O)C1CCCC1` [Compound S4]: the Act% turned out to be 0.2%.

Consider `O=C(Cc1ccc(Br)cc1)N[C@H]1CCOC1=O` [Control 7, reference compound], for which the Act% came out at 0.2%.

In the next assay the target is T2, CepR. Description: CepR antagonism in E. coli β-galactosidase reporter (Ec-reporter), competition against C8-AHL. The assay is classed as cell-based, B. cenocepacia. As to conditions: Ec-reporter; against 10 nM C8-AHL. In outline: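 CepR antagonism was measured in E. coli JLD271 (∆sdiA) carrying pJN105-cepR, which expresses B. cenocepacia CepR from an arabinose-inducible pBAD promoter, and pSC11-cepI, which fuses lacZ to the cepI promoter. Induced cells were grown 4 h with compound and 10 nM C8-AHL. β-Galactosidase activity was then read by CPRG cleavage at 37 °C after Z Buffer permeabilization.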
With `O=C(Cc1cccc(Cl)c1)N[C@H]1CCOC1=O` [Compound C6], the pIC50 was 4.41 and the “Maximal Inhibition (%)” value is given as 66%.

As to `O=C(Cc1ccccc1Cl)N[C@H]1CCOC1=O` [Compound C7], the pIC50 was 5.23 and the “Maximal Inhibition (%)” value worked out at 89%.

As for `O=C(Cc1cccc([N+](=O)[O-])c1)NC1CCOC1=O` (stereo not shown) [Compound C14], the pIC50 is 5.85 and the “Maximal Inhibition (%)” value is recorded as 46%.

Consider `N#Cc1cccc(CC(=O)N[C@H]2CCOC2=O)c1` [Compound E5], for which the pIC50 is 5.57 and the “Maximal Inhibition (%)” value amounted to 81%.

For `CSc1cccc(CC(=O)NC2CCOC2=O)c1` (stereo not shown) [Compound E7], the pIC50 was 5.51 and the “Maximal Inhibition (%)” value is listed as 76%.

For `O=C(COc1cccc([N+](=O)[O-])c1)N[C@H]1CCOC1=O` [Compound E25], the pIC50 is 5.52 and the “Maximal Inhibition (%)” value is reported as 70%.

With `O=C(N[C@H]1CCOC1=O)C1CCCC1` [Compound S4], the pIC50 was 4.49 and the “Maximal Inhibition (%)” value is reported as 72%.

Still in this assay, the particulars now being: Table S3, Ec-reporter.
Regarding `O=C(Cc1ccccc1Br)N[C@H]1CCOC1=O` [Compound C9], the pIC50 was 4.40.

Compound `O=C(Cc1ccccc1I)N[C@H]1CCOC1=O` [Compound C12] showed a pIC50 of 4.66.

As for `O=C(Cc1ccc([N+](=O)[O-])cc1)N[C@H]1CCOC1=O` [Compound C13], the pIC50 was 5.17.

As to `O=C(Cc1cccc2ccccc12)N[C@H]1CCOC1=O` [Compound E13], the pIC50 is 5.31.

The same assay, now with this note: Table S3, Ec-reporter; screening conc. 100 μM; against 10 nM C8-AHL.
As to `O=C(Cc1ccccc1Br)N[C@H]1CCOC1=O` [Compound C9], the “Inh% (100-Act%)” value is listed as 52%.

For `O=C(Cc1ccccc1I)N[C@H]1CCOC1=O` [Compound C12], the “Inh% (100-Act%)” value worked out at 72%.

In the case of `O=C(Cc1ccc([N+](=O)[O-])cc1)N[C@H]1CCOC1=O` [Compound C13], the “Inh% (100-Act%)” value was found to be 79%.

As to `O=C(Cc1ccccc1[N+](=O)[O-])N[C@H]1CCOC1=O` [Compound C15], the “Inh% (100-Act%)” value was determined as 79%.

For `N#Cc1ccc(CC(=O)N[C@H]2CCOC2=O)cc1` [Compound E4], the “Inh% (100-Act%)” value is on record as 29%.

As to `O=C(Cc1ccc(Cl)c(Cl)c1)N[C@H]1CCOC1=O` [Compound E11], the “Inh% (100-Act%)” value is on record as 59%.

Regarding `O=C(Cc1cccc2ccccc12)N[C@H]1CCOC1=O` [Compound E13], the “Inh% (100-Act%)” value worked out at 50%.

With `O=C(Cc1ccc(Br)cc1)N[C@H]1CCOC1=O` [Control 7, reference compound], the “Inh% (100-Act%)” value is reported as 89%.
